# Measurements reported in patent publication US20080221548A1, “Eradication of Pigmentation and Scar Tissue” (priority 2005, published 2008).
# Legend:
# [1] = Experiment 1: removal of tattoo pigmentation with different solutions while puncturing the skin; format: in vivo, pig
# Experimental: A number of tattoos were applied to the skin of a pig. Each of the tattoos was a square having dimensions approximately 1 cm×1 cm filled with a solid blue-grey color. […] FIG. 3 is a reproduction of a photograph taken 14 days after four of these tattooed areas were treated according to the method of the invention using different types of solution. Square 1 was treated using distilled water and essentially no color reduction was observed. Square 2 was treated using a 2% aqueous solution of salicylic acid. […] Square 3 was treated using a solution containing 17% EDTA.
# [2] = Experiment 2: treatment of tattooed squares by skin puncturing with salicylic acid rinse; format: in vivo, pig; details: 5% aqueous solution of salicylic acid, 10 cc/cm^2, three minutes puncturing, five squares; eighteen days later
# Experimental: A number of tattoos were applied to the skin of a pig. Each of the tattoos was a square having dimensions approximately 1 cm×1 cm filled with a solid blue-grey color. Two months after the tattoos were applied each of the five squares labeled 1 to 5 on the photograph shown in FIG. 4A was treated according to the method of the invention. The treatment for each square consisted of repeatedly puncturing the skin with the device described hereinabove for three minutes. As the machine was operated, the needles and skin surface were cyclically rinsed with a 5% aqueous solution of salicylic acid. A total of 10 cc of solution was used for each square (i.e. 10 cc/cm^2). Following this initial treatment no further treatment was applied to these five locations.
# [3] = Experiment 3: treatment of a pigmented area of skin surrounding a scab by skin puncturing with salicylic acid rinse; format: in vivo; details: 5% aqueous solution of salicylic acid, ~10 cc/cm^2, ten minutes puncturing; fourteen days after treatment
# Experimental: In FIG. 5A is shown a photograph of an area of skin on which there is a reddish-purple pigmented area surrounding brown colored scab. The pigmented area surrounding the scab was treated using the method described above by repeatedly puncturing the skin for ten minutes. During the treatment 10 cc of a 5% aqueous solution of salicylic acid (˜10 cc/cm^2) was used to clean the needles and surface of the skin. A dry bandage was placed over the treated area for a few days to keep the site clean, but no medication was applied. After this the skin was left unattended. […] Although embodiments of the invention have been described by way of illustration, it will be understood that the invention may be carried out with many variations, modifications, and adaptations, without departing from its spirit or exceeding the scope of the claims.
smiles,measurement,setting,value
O=C(O)CN(CCN(CC(=O)O)CC(=O)O)CC(=O)O [EDTA],scar after treatment,"[1]; solution containing 17% EDTA, square 3",did not vanish
same,color reduction,"[1]; solution containing 17% EDTA, tattoo square 3, 14 days after treatment",60%
OO [H2O2],reduction in color,"[1]; H2O2, tattoo square 4, 14 days after treatment",40-60%
O=C(O)c1ccccc1O [salicylic acid],tattoo color after treatment,[2],all of the original blue-grey color has disappeared
same,color reduction,"[1]; 2% aqueous solution of salicylic acid, 1 cm x 1 cm blue-grey tattoo square 2, 14 days after treatment plus a few days",approximately 90%
same,scar after treatment,"[1]; 2% aqueous solution of salicylic acid, square 2, a few days after the 14-day photograph",vanished leaving no trace
same,color of the pigmented area after treatment,[3],changed to a color slightly greyer than the natural skin color
same,scar tissue after treatment,[3],gone
